For this assay, the target named is EP4 (Homo sapiens, UniProt P35408). The assay can be described thus: EP4 binding (Ki / IC50).

This is an account of results in patent US20170151261A1, “SKIN WOUND HEALING AND SCAR REDUCTION WITH PROSTAGLANDIN EP4 AGONIST COMBINATIONS” (Allergan, Inc., priority 2012, published 2017).

Chain of EP4 (P35408 whole entry): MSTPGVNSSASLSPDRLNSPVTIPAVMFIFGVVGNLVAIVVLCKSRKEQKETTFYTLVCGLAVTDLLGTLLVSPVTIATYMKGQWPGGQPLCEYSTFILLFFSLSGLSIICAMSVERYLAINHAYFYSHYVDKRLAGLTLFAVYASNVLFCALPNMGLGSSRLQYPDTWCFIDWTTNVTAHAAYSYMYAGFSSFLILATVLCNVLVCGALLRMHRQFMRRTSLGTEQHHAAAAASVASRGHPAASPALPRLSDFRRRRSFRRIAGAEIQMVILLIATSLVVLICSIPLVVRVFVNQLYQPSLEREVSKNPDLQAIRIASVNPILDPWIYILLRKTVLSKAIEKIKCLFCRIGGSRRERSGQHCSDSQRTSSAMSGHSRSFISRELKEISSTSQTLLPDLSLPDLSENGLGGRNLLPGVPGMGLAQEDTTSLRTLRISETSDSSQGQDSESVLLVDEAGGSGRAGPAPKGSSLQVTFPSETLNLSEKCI

In the case of `CCCCC[C@H](O)c1ccc(N2C(=O)CC[C@@H]2CCCc2ccc(C(=O)O)s2)cc1`, the IC50 was over 10 µM.
